Test systems include SR; NCI-H226; NCI/ADR-RES; PC-3; MDA-MB-435; HCT-116; SF-295; SK-MEL-28; OVCAR-8; SF-539; CAKI-1; HCT-15; DU-145; HL-60; RPMI-8226; M19-MEL; DLD-1; KM-20L2; HOP-18.
Holding throughout (experiment): NCI tumour cell line growth inhibition, 48 h

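Protocol summary: plate cells (96-well), add compound at 5 concentrations, incubate 48 h, interpolate endpoints linearly. At the GI50, growth is halved.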 The source made the active and inactive calls. Cut-off read from the data, not from the text of the source: active = GI50 up to about 1.1 µM and inactive = higher.

With `COc1ccc2nc3ccc(OC)cc3c([S+]([O-])CCCl)c2c1` (stereo not given), the GI50 with SR is 2.67 µM (inactive); with NCI-H226 it was 16.8 µM (inactive); with NCI/ADR-RES it was 15.2 µM (inactive); in the test on PC-3 it was 11.2 µM (inactive); in the test with MDA-MB-435 it was 3.73 µM (inactive); with HCT-116 it was 1.83 µM (inactive). In addition, the GI50 was 22.2 µM (inactive) with SF-295; 3.73 µM (inactive) in the test on SK-MEL-28; 2.67 µM (inactive) with OVCAR-8; 1.72 µM (inactive) in the test with SF-539; 2.62 µM (inactive) in the test on CAKI-1; 2.65 µM in the test with HCT-15. Moreover, the GI50 in the test on DU-145 is 1.99 µM (inactive); in the test with HL-60, 2.31 µM (inactive); in the test on RPMI-8226 it was 2.11 µM (inactive).

As for `C=C1C(=O)OC2C1CC1OC2C(C)CCC/C(C)=C\CCC1(C)O` (stereo not given), the GI50 with NCI-H226 is 18.4 µM (inactive); in the test on NCI/ADR-RES, 14.4 µM (inactive); in the test with M19-MEL, 10.1 µM (inactive); with HCT-116, 13.5 µM (inactive); with DLD-1, 18.7 µM (inactive); in the test with SF-295, 37.5 µM (inactive). In addition, the GI50 was 16.4 µM (inactive) in the test with SK-MEL-28; 29.7 µM (inactive) with KM-20L2; 9.46 µM (inactive) in the test with OVCAR-8; 16.5 µM (inactive) with SF-539; 18.6 µM (inactive) in the test on CAKI-1; 10.6 µM (inactive) with HOP-18. In addition, the GI50 was 18.2 µM in the test with HCT-15, 5.61 µM (inactive) in the test with HL-60 and 7.6 µM (inactive) in the test with RPMI-8226.

Take `C[S+](C)([O-])=Nn1c(=O)n2n(c1=O)[C@H]1CC[C@@H]2C1`: the GI50 in the test on SR, with NCI-H226, in the test with NCI/ADR-RES, in the test with PC-3, with MDA-MB-435 and in the test on SF-295 was > 100 µM (inactive) throughout. Besides, the GI50 was > 100 µM (inactive) in the test with SK-MEL-28; > 100 µM (inactive) in the test on OVCAR-8; > 100 µM (inactive) with SF-539; > 100 µM (inactive) in the test with CAKI-1; more than 100 µM with HCT-15; > 100 µM (inactive) with DU-145. Moreover, the values for the GI50 in the test on HL-60 and in the test on RPMI-8226 were 46.3 µM (inactive) and > 100 µM (inactive), respectively.

With `COC1=CC(=O)C=C(OC)C1=O` [2,6-DIMETHOXYQUINONE], the GI50 in the test on NCI-H226 was 1.55 µM (inactive); with NCI/ADR-RES, 5.01 µM (inactive); in the test on M19-MEL, 4.22 µM (inactive); with HCT-116, 6.49 µM (inactive); with DLD-1 it was 8.87 µM (inactive); in the test on SF-295, 13.3 µM (inactive). Further, the GI50 with SK-MEL-28 is 21.8 µM (inactive); in the test on KM-20L2, 30 µM (inactive); with OVCAR-8 it was 8.93 µM (inactive); in the test with SF-539, 16.8 µM (inactive); in the test with CAKI-1 it was 50.4 µM (inactive); in the test with HOP-18, 45.8 µM (inactive). The figures for the GI50 in the test with HCT-15, with HL-60 and with RPMI-8226 were 31.6 µM, 3.94 µM (inactive) and 6 µM (inactive), respectively.

For `CN(C)c1ccc(N2C(=S)SC(=N\c3ccccc3)/C2=N/c2ccccc2)cc1`, the GI50 in the test on SR was > 100 µM (inactive); in the test with NCI-H226, > 100 µM (inactive); in the test on NCI/ADR-RES, > 100 µM (inactive); with PC-3 it was 37.8 µM (inactive); in the test on MDA-MB-435, > 100 µM (inactive); in the test on HCT-116, > 100 µM (inactive). The GI50 was > 100 µM (inactive) with SF-295; > 100 µM (inactive) in the test with SK-MEL-28; > 100 µM (inactive) in the test on OVCAR-8; > 100 µM (inactive) with CAKI-1; more than 100 µM with HCT-15; > 100 µM (inactive) with DU-145. For the same compound, the GI50 in the test on HL-60 and in the test with RPMI-8226 was > 100 µM (inactive) each time.

In the case of `CCN(CC)CCCNc1ncc(C)c2[nH]c3ccncc3c12`, the GI50 is 5.69 µM (inactive) in the test on NCI-H226; > 100 µM (inactive) in the test on NCI/ADR-RES; 11.5 µM (inactive) in the test on M19-MEL; 6.58 µM (inactive) with HCT-116; 31 µM (inactive) in the test on DLD-1; 11.2 µM (inactive) in the test with SF-295. Moreover, the GI50 is 12.9 µM (inactive) in the test on SK-MEL-28; 6.24 µM (inactive) in the test on KM-20L2; 7.29 µM (inactive) in the test on OVCAR-8; 6.5 µM (inactive) in the test on SF-539; 35.1 µM in the test with HCT-15; 22 µM (inactive) with HL-60. For the same compound, the GI50 with RPMI-8226 was 50.5 µM (inactive).

On to `COc1cc(C2c3cc4c(cc3[C@@H](Nc3cnc5ccccc5c3)C3COC(=O)[C@H]23)OCO4)cc(OC)c1O` (stereo not given in full), for which the GI50 with NCI-H226 is 0.152 µM (active); with NCI/ADR-RES it was 1.51 µM (inactive); in the test with M19-MEL, 0.422 µM (active); in the test on HCT-116 it was 0.46 µM (active); in the test with DLD-1, 1.05 µM (active); in the test with SF-295, 0.148 µM (active). For the same compound, the GI50 in the test with SK-MEL-28 was 1.14 µM (inactive); in the test with KM-20L2, 1.47 µM (inactive); in the test on OVCAR-8, 0.346 µM (active); in the test on SF-539 it was 0.168 µM (active); with CAKI-1, 0.129 µM (active); in the test with HOP-18, 0.34 µM (active). Moreover, the results for the GI50 with HCT-15, with HL-60 and in the test on RPMI-8226 were 0.148 µM, < 0.033 µM (active) and 0.159 µM (active), respectively.

For the compound `CC(NC(C#N)CC12CC3CC(CC(C3)C1)C2)c1ccccc1` (stereo not given), the GI50 in the test with SR was 28.4 µM (inactive); with NCI/ADR-RES it was > 100 µM (inactive); in the test with PC-3 it was > 100 µM (inactive); in the test on MDA-MB-435, > 100 µM (inactive); in the test on HCT-116 it was 34.8 µM (inactive); in the test with SF-295, 20.6 µM (inactive). Besides, the GI50 was > 100 µM (inactive) with SK-MEL-28; 60.8 µM (inactive) with OVCAR-8; 33.3 µM (inactive) with CAKI-1; 56.8 µM in the test with HCT-15; 41.8 µM (inactive) in the test on DU-145; 18.5 µM (inactive) with HL-60. The GI50 in the test on RPMI-8226 was 15.5 µM (inactive).

Consider `CCC1(c2ccccc2)C(=O)N=C(c2ccccc2)N1CCc1ccccc1` (stereo not given), for which the GI50 with SR, in the test on NCI-H226, in the test with NCI/ADR-RES, with PC-3, in the test with MDA-MB-435 and in the test on HCT-116 was > 100 µM (inactive) in each case. The GI50 with SF-295 was > 100 µM (inactive); in the test on SK-MEL-28 it was > 100 µM (inactive); with OVCAR-8 it was > 100 µM (inactive); in the test with SF-539 it was > 100 µM (inactive); with CAKI-1 it was > 100 µM (inactive); in the test with HCT-15, more than 100 µM. The GI50 in the test with DU-145, in the test on HL-60 and with RPMI-8226 was > 100 µM (inactive) in each case.

Take `COc1ccc2c(c1)c1cc(OC)ccc1n2CCCCOc1ccc(-c2c3ccccc3c(-c3ccc(OCCCCn4c5ccc(OC)cc5c5cc(OC)ccc54)cc3)c3ccccc23)cc1`: the GI50 with NCI-H226, in the test with M19-MEL, in the test with HCT-116, in the test on DLD-1, in the test on SK-MEL-28 and in the test with KM-20L2 was > 100 µM (inactive) in each case. Moreover, the GI50 was > 100 µM (inactive) in the test on OVCAR-8, > 100 µM (inactive) in the test with SF-539, > 100 µM (inactive) with CAKI-1 and more than 100 µM with HCT-15.

On to `CC(C)c1ccccc1SCc1cc(=O)cc(CSc2ccccc2C(C)C)o1`, for which the GI50 with SR is 31.7 µM (inactive); with NCI-H226, 21.2 µM (inactive); in the test with NCI/ADR-RES, 17.7 µM (inactive); in the test on PC-3, 13.7 µM (inactive); in the test on MDA-MB-435, 15 µM (inactive); with SF-295, 17.7 µM (inactive). The GI50 in the test on SK-MEL-28 is 32.7 µM (inactive); in the test with OVCAR-8 it was 22.7 µM (inactive); in the test on CAKI-1 it was 18.5 µM (inactive); in the test on HCT-15, 24.7 µM; with DU-145 it was 23.1 µM (inactive); with HL-60 it was 22.9 µM (inactive). Moreover, the GI50 with RPMI-8226 is 32.4 µM (inactive).

`O=NN(CCCl)C(=O)N[C@H]1CCCC[C@@H]1Cl`: the GI50 is 3.48 µM (inactive) in the test on SR; > 100 µM (inactive) in the test on NCI-H226; 39.7 µM (inactive) with M19-MEL; 50.6 µM (inactive) with HCT-116; > 100 µM (inactive) in the test with DLD-1; 47.1 µM (inactive) with SF-295. Moreover, the GI50 was > 100 µM (inactive) in the test with SK-MEL-28; > 100 µM (inactive) in the test on KM-20L2; > 100 µM (inactive) in the test on OVCAR-8; 24.9 µM (inactive) in the test on SF-539; > 100 µM (inactive) in the test on CAKI-1; > 100 µM (inactive) with HOP-18. Also, the GI50 is more than 100 µM with HCT-15, 19.6 µM (inactive) in the test on HL-60 and 43.8 µM (inactive) in the test on RPMI-8226.

Take `CCOC(=O)Oc1ccc(C(CNC(C)C)OC(=O)OCC)cc1OC(=O)OCC` (stereo not given): the GI50 in the test with SR, with NCI-H226, in the test with NCI/ADR-RES, in the test on PC-3, with MDA-MB-435 and in the test on HCT-116 was > 100 µM (inactive) each time. Also, the GI50 with SF-295 is > 100 µM (inactive); with SK-MEL-28, > 100 µM (inactive); with OVCAR-8, > 100 µM (inactive); in the test with SF-539 it was > 100 µM (inactive); in the test on CAKI-1, > 100 µM (inactive); in the test on HCT-15 it was more than 100 µM. In addition, the GI50 in the test on DU-145 was > 100 µM (inactive); in the test with HL-60, 25.4 µM (inactive); in the test on RPMI-8226 it was > 100 µM (inactive).

For the compound `COC(=O)C1=C(OC(=O)/C=C/c2ccc(Cl)cc2)C(C(=O)OC)[C@@]2(O)[C@@H](C(=O)OC)[C@H](C)C[C@@H]1[C@@H]2C(=O)OC` (stereo not given in full), the GI50 in the test on NCI-H226 is 20.7 µM (inactive); with NCI/ADR-RES it was 21.6 µM (inactive); in the test with PC-3 it was 20.7 µM (inactive); in the test on MDA-MB-435, 14.9 µM (inactive); with HCT-116, 23.8 µM (inactive); in the test on SF-295, 29.4 µM (inactive). The GI50 was 26.4 µM (inactive) in the test on SK-MEL-28; 14.6 µM (inactive) in the test with OVCAR-8; 17.6 µM (inactive) with SF-539; 22.5 µM (inactive) in the test on CAKI-1; 19.3 µM in the test with HCT-15; 39.4 µM (inactive) with DU-145. Further, in the test with HL-60, the GI50 is 13.6 µM (inactive).
